ChEMBL document CHEMBL1201862, “PubChem BioAssay data set” (2004)
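1) Cells in 96-well plates. 2) Compound, 48 h, 5 concentrations. 3) Linear interpolation between surrounding doses. 4) Unreached endpoint = highest concentration. Here, GI50 denotes the concentration required for 50% inhibition of growth.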 Calls of active or inactive are those of the source. Rule as the data show it: active = GI50 up to about 1.1 µM and inactive = higher.

Legend:
Test in all cases: NCI anticancer screen, dose series, 48 h
M14 = tested on: M14
786-0 = tested on: 786-0
HCT-116 = tested on: HCT-116
UACC-257 = tested on: UACC-257
K562 = tested on: K562
HCT-15 = tested on: HCT-15
HL-60 = tested on: HL-60
SF-295 = tested on: SF-295
NCI-H522 = tested on: NCI-H522
SNB-19 = tested on: SNB-19
OVCAR-5 = tested on: OVCAR-5
OVCAR-8 = tested on: OVCAR-8
SK-OV-3 = tested on: SK-OV-3
RPMI-8226 = tested on: RPMI-8226
HOP-92 = tested on: HOP-92

Row | SMILES | GI50 (M14) | GI50 (786-0) | GI50 (HCT-116) | GI50 (UACC-257) | GI50 (K562) | GI50 (HCT-15) [µM] | GI50 (HL-60) | GI50 (SF-295) | GI50 (NCI-H522) | GI50 (SNB-19) | GI50 (OVCAR-5) | GI50 (OVCAR-8) | GI50 (SK-OV-3) | GI50 (RPMI-8226) | GI50 (HOP-92)
1 | Cc1ccc(Nc2nc(C)c(C(/C=C/c3ccc(/C=C/C(=N/NC(=O)C[n+]4ccccc4)c4sc(Nc5ccc(C)cc5[N+](=O)[O-])nc4C)cc3)=N\NC(=O)C[n+]3ccccc3)s2)c([N+](=O)[O-])c1 | > 100 µM (inactive) | > 100 µM (inactive) | > 100 µM (inactive) | > 100 µM (inactive) | 81.3 µM (inactive) | 88.1 | 27.4 µM (inactive) | > 100 µM (inactive) | > 100 µM (inactive) | > 100 µM (inactive) | 50.8 µM (inactive) | > 100 µM (inactive) | > 100 µM (inactive) | – | –
2 | O=S(=O)(C1=CC(S(=O)(=O)c2ccccc2)COC1)c1ccccc1 (stereo unspecified) | > 100 µM (inactive) | > 100 µM (inactive) | > 100 µM (inactive) | > 100 µM (inactive) | > 100 µM (inactive) | > 100 | > 100 µM (inactive) | > 100 µM (inactive) | > 100 µM (inactive) | > 100 µM (inactive) | – | > 100 µM (inactive) | > 100 µM (inactive) | > 100 µM (inactive) | –
3 | Cc1cc(C)c(C(=O)O)c(N)c1O | > 100 µM (inactive) | > 100 µM (inactive) | > 100 µM (inactive) | > 100 µM (inactive) | > 100 µM (inactive) | > 100 | > 100 µM (inactive) | > 100 µM (inactive) | > 100 µM (inactive) | > 100 µM (inactive) | > 100 µM (inactive) | > 100 µM (inactive) | > 100 µM (inactive) | > 100 µM (inactive) | –
4 | NC(=O)C(=O)CC(=O)c1ccccc1NC1=CC(=O)C(=O)c2ccccc21 | 46.6 µM (inactive) | > 61.1 µM (inactive) | 53.1 µM (inactive) | 34.7 µM (inactive) | 47 µM (inactive) | > 53.5 | 22.6 µM (inactive) | – | 30.2 µM (inactive) | > 58.2 µM (inactive) | > 100 µM (inactive) | 48.2 µM (inactive) | > 100 µM (inactive) | > 40.6 µM (inactive) | 23.9 µM (inactive)
5 | Cc1cc(N(CCC#N)CCC#N)ccc1/N=N/c1ccccc1[N+](=O)[O-] | > 100 µM (inactive) | > 100 µM (inactive) | – | > 100 µM (inactive) | > 100 µM (inactive) | > 100 | > 100 µM (inactive) | > 100 µM (inactive) | > 100 µM (inactive) | – | > 100 µM (inactive) | > 100 µM (inactive) | > 100 µM (inactive) | – | –
6 | COc1cc([C@@H]2c3cc4c(cc3[C@@H](NCc3ccc(C#N)cc3)C3COC(=O)[C@@H]32)OCO4)cc(OC)c1O (stereo partly specified) | 1.1 µM (active) | 0.632 µM (active) | 1.19 µM (inactive) | 4.76 µM (inactive) | 1.54 µM (inactive) | 1.16 | 0.116 µM (active) | 0.533 µM (active) | 1.09 µM (active) | 0.621 µM (active) | 2.02 µM (inactive) | 1.2 µM (inactive) | 0.989 µM (active) | 0.993 µM (active) | 1.88 µM (inactive)
7 | O=[N+]([O-])c1ccc(Cl)c(C2CC(c3cccc4ccccc34)=Nc3ccccc3[S+]2[O-])c1 (stereo unspecified) | 17.7 µM (inactive) | 9.93 µM (inactive) | 9.73 µM (inactive) | 17 µM (inactive) | 3.97 µM (inactive) | 13.6 | 4.89 µM (inactive) | 18.2 µM (inactive) | 7.23 µM (inactive) | 29 µM (inactive) | 29.5 µM (inactive) | 8.77 µM (inactive) | > 100 µM (inactive) | 2.21 µM (inactive) | 0.519 µM (active)
8 | Oc1cc(-c2cccs2)nc2cc3c(cc12)OCO3 | 2.55 µM (inactive) | 3.78 µM (inactive) | 4.14 µM (inactive) | 3.72 µM (inactive) | 2.42 µM (inactive) | 4.23 | 4.37 µM (inactive) | 3.48 µM (inactive) | 2.05 µM (inactive) | 10.4 µM (inactive) | 7.98 µM (inactive) | 4.66 µM (inactive) | 2.7 µM (inactive) | 6.32 µM (inactive) | > 100 µM (inactive)
9 | NCCNCc1c2ccccc2c(CNCCN)c2ccccc12 | 16.3 µM (inactive) | 13.3 µM (inactive) | 5.18 µM (inactive) | 16.4 µM (inactive) | 7.59 µM (inactive) | 38 | 20.4 µM (inactive) | 17.4 µM (inactive) | 8.13 µM (inactive) | – | 27.4 µM (inactive) | 13.2 µM (inactive) | – | – | 22.2 µM (inactive)
10 | Cc1cnc2ccc(C)c([N+](=O)[O-])c2c1NCCCN(C)C | > 100 µM (inactive) | > 100 µM (inactive) | 74.8 µM (inactive) | > 100 µM (inactive) | > 100 µM (inactive) | > 100 | > 100 µM (inactive) | > 100 µM (inactive) | > 100 µM (inactive) | > 100 µM (inactive) | > 100 µM (inactive) | > 100 µM (inactive) | > 100 µM (inactive) | > 100 µM (inactive) | –
11 | COc1ccc2c3c(c(C(=O)O)oc13)C(CCC(=O)O)CC2 (stereo unspecified) | > 100 µM (inactive) | > 100 µM (inactive) | > 100 µM (inactive) | > 100 µM (inactive) | – | > 100 | – | > 100 µM (inactive) | – | > 100 µM (inactive) | – | > 100 µM (inactive) | > 100 µM (inactive) | – | > 100 µM (inactive)
12 | CC1=C(C(=O)Nc2ccc(C)cc2)C(c2cccc([N+](=O)[O-])c2)C(C(=O)Nc2ccc(C)cc2)=C(C)N1 | 16.9 µM (inactive) | 26.2 µM (inactive) | 35.6 µM (inactive) | 21.2 µM (inactive) | 16.9 µM (inactive) | 26.2 | 16.1 µM (inactive) | 28.1 µM (inactive) | 27.4 µM (inactive) | 28.1 µM (inactive) | 53.2 µM (inactive) | 40 µM (inactive) | 55.2 µM (inactive) | – | –
13 | CCCCCCCCSC(=O)NCCCC | 25.8 µM (inactive) | 38.1 µM (inactive) | – | – | 38.2 µM (inactive) | 27.2 | 18.7 µM (inactive) | 38.5 µM (inactive) | 27.1 µM (inactive) | 34.6 µM (inactive) | 48.4 µM (inactive) | 36.6 µM (inactive) | > 100 µM (inactive) | 20.3 µM (inactive) | 14.4 µM (inactive)
14 | CCc1cc(Cc2cc(CC)c(NC(=O)C(=O)Cc3ccccn3)c(CC)c2Cl)c(Cl)c(CC)c1NC(=O)C(=O)Cc1ccccn1 | 75.2 µM (inactive) | > 100 µM (inactive) | > 100 µM (inactive) | 40.4 µM (inactive) | > 100 µM (inactive) | 39.4 | > 100 µM (inactive) | > 100 µM (inactive) | – | > 100 µM (inactive) | > 100 µM (inactive) | > 100 µM (inactive) | > 100 µM (inactive) | > 100 µM (inactive) | > 100 µM (inactive)
15 | CC(C)C12Cc3c(ccc4ccccc34)OC1(C)Oc1ccc3ccccc3c1C2 (stereo unspecified) | > 100 µM (inactive) | > 100 µM (inactive) | > 100 µM (inactive) | – | > 100 µM (inactive) | – | – | > 100 µM (inactive) | 63.7 µM (inactive) | > 100 µM (inactive) | > 100 µM (inactive) | > 100 µM (inactive) | > 100 µM (inactive) | – | > 100 µM (inactive)
16 | CC1=C(C(=O)Nc2ccc([N+](=O)[O-])cc2)C(c2ccccc2O)C(C(=O)Nc2ccc([N+](=O)[O-])cc2)=C(C)N1 | 19.3 µM (inactive) | 21.2 µM (inactive) | – | 21.7 µM (inactive) | 17.9 µM (inactive) | – | 19.2 µM (inactive) | 29.6 µM (inactive) | 15 µM (inactive) | 37.2 µM (inactive) | 16 µM (inactive) | 28.2 µM (inactive) | 21.1 µM (inactive) | 17.6 µM (inactive) | 11.7 µM (inactive)
17 | CCOC(=O)C(=O)Nc1cc(Cl)c(Cl)cc1Cl | > 100 µM (inactive) | > 100 µM (inactive) | > 100 µM (inactive) | > 100 µM (inactive) | > 100 µM (inactive) | > 100 | – | > 100 µM (inactive) | > 100 µM (inactive) | > 100 µM (inactive) | > 100 µM (inactive) | > 100 µM (inactive) | > 100 µM (inactive) | > 100 µM (inactive) | > 100 µM (inactive)
18 | CN(C)CN(C)c1nc(N(C)C)nc(N(C)CN(C)C)n1 | 36.7 µM (inactive) | 34.4 µM (inactive) | 32 µM (inactive) | 34.7 µM (inactive) | 30.8 µM (inactive) | 24.7 | 17 µM (inactive) | > 100 µM (inactive) | > 100 µM (inactive) | > 100 µM (inactive) | – | 27.9 µM (inactive) | > 100 µM (inactive) | 27.2 µM (inactive) | 63 µM (inactive)
19 | COc1ccc(OC)c(NC(=O)CCC/C(CC(=O)c2ccc(O)c(OC)c2)=N\Nc2nnc(C)n2N)c1 | > 100 µM (inactive) | > 100 µM (inactive) | – | > 100 µM (inactive) | 32.4 µM (inactive) | > 100 | 90.2 µM (inactive) | > 100 µM (inactive) | > 100 µM (inactive) | > 100 µM (inactive) | > 100 µM (inactive) | > 100 µM (inactive) | > 100 µM (inactive) | > 100 µM (inactive) | > 100 µM (inactive)
20 | CCCCCCCCCCCCCC(=O)OC1CC(=O)OC1CO (stereo unspecified) | 19.3 µM (inactive) | > 100 µM (inactive) | 27.4 µM (inactive) | > 100 µM (inactive) | 21.9 µM (inactive) | 18.5 | 23 µM (inactive) | 21.5 µM (inactive) | – | 32.8 µM (inactive) | > 100 µM (inactive) | > 100 µM (inactive) | > 100 µM (inactive) | 36.5 µM (inactive) | 17 µM (inactive)
